Legend:
POLCO [1] = test: Post-emergence action at 320 g/ha against POLCO; type: in vivo, Fallopia convolvulus (Polygonum convolvulus); conditions: visual rating about 3 weeks after treatment vs untreated controls
Description: (§1) Accordingly, the compounds of the invention have good herbicidal action against a broad spectrum of weed grasses and broad-leaved weeds and are therefore suitable for controlling unwanted vegetation by the post-emergence method. • b) Seeds of monocotyledonous and dicotyledonous weeds and crop plants are placed in sandy loam in plastic or organic planting pots, covered with soil and cultivated in a greenhouse under controlled growth conditions. 2 to 3 weeks after sowing, the test plants are treated at the one-leaf stage. The compounds of the invention, formulated in the form of wettable powders (WP) or as emulsion concentrates (EC), are then sprayed onto the green parts of the plants as aqueous suspension or emulsion with addition of 0.5% additive at a water application rate of 600 l/ha (converted). After the test plants have been kept in the greenhouse under optimum growth conditions for about 3 weeks, the activity of the preparations is rated visually in comparison to untreated controls. For example, 100% activity=the plants have died, 0% activity=like control plants. Tables 39 to 49 below show the effects of selected compounds of the general formula (I) according to Tables 1 and 2 on various harmful plants and at an application rate corresponding to 320 g/ha, which were obtained by the experimental procedure mentioned above.

VIOTR [2] = test: Post-emergence action at 320 g/ha against VIOTR; type: in vivo, Viola tricolor; conditions: visual rating about 3 weeks after treatment vs untreated controls
Description: as §1

DIGSA [3] = test: Pre-emergence action at 320 g/ha against DIGSA; type: in vivo, Digitaria sanguinalis; conditions: visual scoring after about 3 weeks vs untreated controls
Summary of the method: (§2)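 WP/EC formulations applied pre-emergence to covering soil, water rate 600 l/ha, 0.5% additive. Greenhouse, ~3 weeks. Visual % damage vs untreated (0–100%).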

AMARE [4] = test: Post-emergence action at 320 g/ha against AMARE; type: in vivo, Amaranthus retroflexus; conditions: visual rating about 3 weeks after treatment vs untreated controls
Description: as §1

AVEFA [5] = test: Pre-emergence action at 320 g/ha against AVEFA; type: in vivo; conditions: visual scoring after about 3 weeks vs untreated controls
Summary of the method: as §2

LOLRI = test: Pre-emergence action at 320 g/ha against LOLRI; type: in vivo, Lolium rigidum; conditions: visual scoring after about 3 weeks vs untreated controls
Summary of the method: as §2

MATIN = test: Pre-emergence action at 320 g/ha against MATIN; type: in vivo, Tripleurospermum inodorum (Matricaria inodora); conditions: visual scoring after about 3 weeks vs untreated controls
Summary of the method: as §2

AMARE [6] = test: Pre-emergence action at 320 g/ha against AMARE; type: in vivo, Amaranthus retroflexus; conditions: visual scoring after about 3 weeks vs untreated controls
Summary of the method: as §2

PHBPU [7] = test: Pre-emergence action at 320 g/ha against PHBPU; type: in vivo; conditions: visual scoring after about 3 weeks vs untreated controls
Description: (§3) b) Seeds of monocotyledonous and dicotyledonous weed plants and crop plants are placed in plastic or organic planting pots and covered with soil. The compounds of the invention, formulated in the form of wettable powders (WP) or as emulsion concentrates (EC), are then applied onto the surface of the covering soil as aqueous suspension or emulsion with addition of 0.5% additive at a water application rate of 600 l/ha (converted). After the treatment, the pots are placed in a greenhouse and kept under good growth conditions for the trial plants. After about 3 weeks, the effect of the preparations is scored visually in comparison with untreated controls as percentages. For example, 100% activity=the plants have died, 0% activity=like control plants. Tables 13 to 26 below show the effects of selected compounds of the general formula (I) on various harmful plants and at an application rate corresponding to 320 g/ha, which were obtained by the experimental procedure mentioned above.

ABUTH [8] = test: Post-emergence action at 320 g/ha against ABUTH; type: in vivo, Abutilon theophrasti; conditions: visual rating about 3 weeks after treatment vs untreated controls
Description: as §1

SETVI [9] = test: Post-emergence action at 320 g/ha against SETVI; type: in vivo, Setaria viridis; conditions: visual rating about 3 weeks after treatment vs untreated controls
Description: as §1

VERPE = test: Pre-emergence action at 320 g/ha against VERPE; type: in vivo, Veronica persica; conditions: visual scoring after about 3 weeks vs untreated controls
Summary of the method: as §2

ALOMY [10] = test: Pre-emergence action at 320 g/ha against ALOMY; type: in vivo, Alopecurus myosuroides; conditions: scored visually after about 3 weeks vs untreated controls (100% = plants have died)
Summary of the method: as §2

ECHCG = test: Post-emergence action at 320 g/ha against ECHCG; type: in vivo, Echinochloa crus-galli; conditions: dosage 320 g/ha, visual rating about 3 weeks after treatment vs untreated controls (100% = plants died)
Description: as §1

PHBPU [11] = test: Post-emergence action at 320 g/ha against PHBPU; type: in vivo; conditions: visual rating about 3 weeks after treatment vs untreated controls
Description: as §1

ALOMY [12] = test: Post-emergence action against ALOMY, 320 g/ha; type: in vivo, Alopecurus myosuroides; conditions: dosage 320 g/ha, visual rating about 3 weeks after treatment vs untreated controls (100% = plants died)
Summary of the method: (§4)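 Weeds were sown in sandy loam, grown in a greenhouse and sprayed at the one-leaf stage, 2 to 3 weeks after sowing, with WP or EC formulations as aqueous suspension or emulsion plus 0.5% additive at 600 l/ha water. Activity was rated visually after about 3 weeks against untreated controls (100% = plants dead, 0% = like control).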

POLCO [13] = test: Pre-emergence action at 320 g/ha against POLCO; type: in vivo, Fallopia convolvulus (Polygonum convolvulus); conditions: visual scoring after about 3 weeks vs untreated controls
Summary of the method: as §2

ECHGC = test: Pre-emergence action at 320 g/ha against ECHGC; type: in vivo, Echinochloa crus-galli; conditions: visual scoring after about 3 weeks vs untreated controls
Summary of the method: as §2

VIOTR [14] = test: Pre-emergence action at 320 g/ha against VIOTR; type: in vivo, Viola tricolor; conditions: dosage 320 g/ha
Summary of the method: as §2

AVEFA [15] = test: Post-emergence action at 320 g/ha against AVEFA; type: in vivo; conditions: visual rating about 3 weeks after treatment vs untreated controls
Summary of the method: as §4

DIGSA [16] = test: Post-emergence action at 320 g/ha against DIGSA; type: in vivo, Digitaria sanguinalis; conditions: dosage 320 g/ha, visual rating about 3 weeks after treatment vs untreated controls (100% = plants died)
Description: as §1

SETVI [17] = test: Pre-emergence action at 320 g/ha against SETVI; type: in vivo, Setaria viridis; conditions: visual scoring after about 3 weeks vs untreated controls
Summary of the method: as §2

ABUTH [18] = test: Pre-emergence action at 320 g/ha against ABUTH; type: in vivo, Abutilon theophrasti; conditions: greenhouse, scored visually after about 3 weeks vs untreated controls, 100% = plants have died, 0% = like control plants
Description: as §3

SMILES	Pre-emergence action against DIGSA in % (DIGSA [3]) [%]	Pre-emergence action against AVEFA in % (AVEFA [5]) [%]	Pre-emergence action against LOLRI in % (LOLRI) [%]	Pre-emergence action against MATIN in % (MATIN) [%]	Pre-emergence action against AMARE in % (AMARE [6]) [%]	Pre-emergence action against VERPE in % (VERPE) [%]	Pre-emergence action at 320 g/ha against ALOMY in % (ALOMY [10]) [%]	Pre-emergence action against POLCO in % (POLCO [13]) [%]	Pre-emergence action against ECHGC in % (ECHGC) [%]	Pre-emergence action against VIOTR in % (VIOTR [14]) [%]	Pre-emergence action against SETVI in % (SETVI [17]) [%]	Pre-emergence action at 320 g/ha against ABUTH in % (ABUTH [18]) [%]	further results
COC(=O)COc1nn(-c2ccccc2F)c(-c2ccc(F)nc2)c1Br [VII-001]	100	90	100	90	100	100	100	90	100	100	100		Post-emergence action against POLCO in % (POLCO [1]): 80%; Post-emergence action against VIOTR in % (VIOTR [2]): 80%; Post-emergence action against AMARE in % (AMARE [4]): 90%; Pre-emergence action against PHBPU in % (PHBPU [7]): 100%; Post-emergence action against ABUTH in % (ABUTH [8]): 80%; Post-emergence action against SETVI in % (SETVI [9]): 90%; Post-emergence action at 320 g/ha against ECHCG in % (ECHCG): 100%; Post-emergence action against PHBPU in % (PHBPU [11]): 90%; Post-emergence action against ALOMY (ALOMY [12]): 90%; Post-emergence action against AVEFA in % (AVEFA [15]): 90%; Post-emergence action at 320 g/ha against DIGSA in % (DIGSA [16]): 90%
C[C@@H](Oc1nn(-c2cc(F)ccc2F)c(-c2cncc(F)c2)c1Br)C(=O)O [VII-137]		90	100	90	100	100	100	90	90	100	100	90	
CCOC(=O)[C@@H](C)Oc1nn(-c2ccccc2F)c(-c2cncc(F)c2)c1Br [VII-130]	100	90	100	100	100	100	100	100	90	100	100	90	

From patent US12180187B2, “1-phenyl-5-azinylpyrazolyl-3-oxyalkyl acids and their use for controlling unwanted plant growth” (BAYER AKTIENGESELLSCHAFT, priority 2019, dated 2024)
